# Results published in article PMC13286573, “Exploration of precision coregulator TR-FRET identifies diverse signatures for LXR ligands relevant to discovery of nonlipogenic ABCA1 inducers” (eLife, 2026).
# What was measured:
# [1] = target: T1, RXRα (Homo sapiens, UniProt P19793); assay: Coactivator D22 recruitment Lanthascreen RXRα; assay type: biochemical; settings: normalized to SR11237
# T1 construct: the reductionist system of NR-LBD with short coregulator peptides as used in the present work; purchased Thermo Fisher Scientific PV4799
# [2] = tested on: mice; set-up: method as in Kick et al., 2015; Kirchgessner et al., 2015; settings: highest dose 30 mg/kg qd, ref Kick et al., 2015, Kirchgessner et al.; cited from earlier work
# [3] = target: T2, LXRβ (Homo sapiens, UniProt P55055); assay: SMRT2 corepressor binding to LXRβ, CRT; assay type: biochemical; set-up: The CRT selectivity assay incorporates GST-tagged LXR-LBD; purchased Thermo Fisher Scientific PV4660; settings: for activity at 1 µM: read-out: SMRT2β, relative % activity at 1 μM
# T2 sequence (P55055 222-460 limits assumed): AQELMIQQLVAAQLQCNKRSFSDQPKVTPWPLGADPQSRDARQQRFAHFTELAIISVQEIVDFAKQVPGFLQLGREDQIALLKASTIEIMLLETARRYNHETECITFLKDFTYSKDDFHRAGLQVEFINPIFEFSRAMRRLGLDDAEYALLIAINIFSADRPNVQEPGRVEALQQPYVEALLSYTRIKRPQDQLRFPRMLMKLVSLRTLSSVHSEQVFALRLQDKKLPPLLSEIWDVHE
# [4] = target: T3, LXRα (Homo sapiens, UniProt Q13133); assay: SMRT2 corepressor binding to LXRα, CRT; assay type: biochemical; set-up: The CRT selectivity assay incorporates GST-tagged LXR-LBD; purchased Thermo Fisher Scientific PV4657; settings: for activity at 1 µM: ligand 1 µM, interpolated from concentration-response, normalized, heat map Figure 9A, read-out: SMRT2α, relative % activity at 1 μM
# T3 sequence (Q13133 209-447 limits assumed): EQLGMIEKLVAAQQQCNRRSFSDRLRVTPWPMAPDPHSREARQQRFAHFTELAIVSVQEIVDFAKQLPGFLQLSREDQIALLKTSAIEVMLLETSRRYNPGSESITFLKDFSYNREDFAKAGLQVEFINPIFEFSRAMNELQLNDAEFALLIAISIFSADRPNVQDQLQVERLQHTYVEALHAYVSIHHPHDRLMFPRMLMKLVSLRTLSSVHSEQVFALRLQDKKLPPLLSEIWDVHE
# [5] = target: T3, LXRα; assay: NCOR2 corepressor binding to LXRα, CRT; assay type: biochemical; set-up: The CRT selectivity assay incorporates GST-tagged LXR-LBD; purchased Thermo Fisher Scientific PV4657; settings: for activity at 1 µM: ligand 1 µM, interpolated from concentration-response, normalized, heat map Figure 9A, read-out: NCOR2α, relative % activity at 1 μM; for Effect on NCOR2 binding to LXRα: monoplex CRT, absence of SRC1
# [6] = tested on: sterol response element (SRE); assay: SRE-luc reporter assay in HepG2 cells; assay type: cell-based, human
# Text: Our phenotypic high-throughput screen (HTS) approach to identify nonlipogenic ABCA1 Inducers (NLAI) originally used counterscreening with a SREBP1c-luciferase reporter (linked to the SREBF1 gene promoter) in human hepatocarcinoma HepG2 cells ([Ben Aissa et al., 2021]). Unwanted lipogenesis is mediated by LXR agonists via direct transcriptional activation and indirectly by the effects of SREBP1c ([Schultz et al., 2000]; [Brown and Goldstein, 1997]). SREBP1c enhances transcription of genes required for synthesis of fatty acids and TG and as the dominant isoform in liver is associated most closely with lipogenesis and TG elevation ([Brown and Goldstein, 1997]). […] Binding of SREBP1c to the sterol response element (SRE) induces transcription of lipogenic genes associated with elevated TG. To better model the lipogenic axis in hepatocytes, we use HepG2 cells stably transfected with a nanoluciferase reporter downstream of a SRE promoter (SRE-luc), activation of which requires SREBP1c maturation.
# HepG2 cells were cotransfected with SRE (LDLR)-NlucP SuperPiggyBac Transposon and a separate Transposase plasmid (System Biosciences). Cells were expanded for multiple passages followed by selection with puromycin (1 μg/ml). Stable cells constitutively express GFP allowed for FACS enrichment and/or cell cloning. Initially, stable pools were compared to low expressing and high expressing enriched pools. The optimal pool was selected based on assay performance (Z’) and was grown and maintained as above, with the addition of 1.0 μg/mL of puromycin biweekly.
# Cells were split into flasks containing CS medium (EMEM supplemented with 10% charcoal stripped FBS (Gibco A52567-01)) and 1% P/S and grown at 37 °C /5% CO2 for 48 hr before plating. Cells were plated in 384-well, white clear tissue culture plates (Greiner 781098) and allowed to grow at 37 °C /5% CO2 for 24 hr before medium was aspirated and compound dilutions prepared in CS medium were added. Following a 24 hr incubation, the medium was aspirated, and cells were lysed/luminescence quantified using the Nano-Glo Luciferase Assay System (Promega N1130).
# [7] = target: T2, LXRβ; assay: NCOR2 corepressor binding to LXRβ, CRT; assay type: biochemical; set-up: The CRT selectivity assay incorporates GST-tagged LXR-LBD; purchased Thermo Fisher Scientific PV4660; settings: for activity at 1 µM: read-out: NCOR2β, relative % activity at 1 μM; for Effect on NCOR2 binding to LXRβ: monoplex CRT, absence of SRC1
# [8] = tested on: LXR; assay: Corepressor (NCOR2, SMRT2) binding to LXR, CRT, statements across isoforms; assay type: biochemical; settings: monoplex CRT, absence of coactivator
# [9] = tested on: Hamsters; set-up: method as in Groot et al., 2005; settings: ref Groot et al., 2005; cited from earlier work
# [10] = tested on: C57Bl/6 mice; set-up: method as in Miao et al., 2004; settings: ref Miao et al., 2004, cited from earlier work
# [11] = tested on: LXR; assay: Multiplex precision CRT (pCRT), SRC1 and NCOR2, LXR isoform not specified; assay type: biochemical; settings: pCRT versus monoplex CRT
# [12] = target: T2, LXRβ; assay: SRC-1 coactivator recruitment to LXRβ, coregulator TR-FRET (CRT); assay type: biochemical; set-up: The CRT selectivity assay incorporates GST-tagged LXR-LBD; purchased Thermo Fisher Scientific PV4660
# [13] = target: T4, PXR (Homo sapiens, UniProt O75469); assay: Coactivator SRC1-4 recruitment Lanthascreen PXR; assay type: biochemical; settings: benchmark SR12813
# T4 sequence (O75469 146-433 limits assumed): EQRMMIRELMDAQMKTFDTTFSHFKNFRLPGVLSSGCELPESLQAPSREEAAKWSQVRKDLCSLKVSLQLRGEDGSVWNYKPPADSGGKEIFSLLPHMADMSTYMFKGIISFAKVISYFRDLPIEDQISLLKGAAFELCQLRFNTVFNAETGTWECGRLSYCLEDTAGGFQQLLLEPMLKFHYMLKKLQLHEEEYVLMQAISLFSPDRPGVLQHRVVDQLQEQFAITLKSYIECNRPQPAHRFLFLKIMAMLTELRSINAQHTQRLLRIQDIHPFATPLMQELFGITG
# [14] = tested on: cynomolgus monkeys; set-up: method as in Groot et al., 2005; settings: ref Groot et al., 2005; cited from earlier work
# [15] = target: T3, LXRα; set-up: The CRT selectivity assay incorporates GST-tagged LXR-LBD; purchased Thermo Fisher Scientific PV4657; method as in Albers et al., 2006; settings: >1 µM; ref Albers et al., 2006; cited from earlier work
# [16] = ligand 1 µM, interpolated from concentration-response, normalized, heat map Figure 9A
# T1 sequence (P19793 227-458 limits assumed): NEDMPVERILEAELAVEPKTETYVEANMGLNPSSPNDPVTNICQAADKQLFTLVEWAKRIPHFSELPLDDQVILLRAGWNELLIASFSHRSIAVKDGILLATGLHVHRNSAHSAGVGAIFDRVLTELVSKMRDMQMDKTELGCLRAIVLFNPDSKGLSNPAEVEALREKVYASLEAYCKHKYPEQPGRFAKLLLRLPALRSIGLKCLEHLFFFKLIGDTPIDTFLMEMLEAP
compound,measurement,setting,value
CC1(C)CCC(C)(C)c2cc(C3(c4ccc(C(=O)O)cc4)OCCO3)ccc21 [SR11237],RXRα CRT response,[1],RXRα-selective full agonists
CC(C)(O)c1cn(-c2ccc(-c3cccc(S(C)(=O)=O)c3)cc2)c(C(C)(C)c2ccccc2Cl)n1 [XL652],Plasma TGs,[2],elevated plasma TGs only at the highest dose
same,activity at 1 µM,[3]; [16],102%
same,Effect on SMRT2 binding to LXRβ,[3]; monoplex CRT,did not perturb SMRT2 binding to LXRβ
same,activity at 1 µM,[4],97%
same,Effect on SMRT2 binding to LXRα,[4]; monoplex CRT,stabilization of SMRT2 corepressor binding to LXRα
same,activity at 1 µM,[5],100%
same,Effect on NCOR2 binding to LXRα,[5],weakly destabilized the NCOR2 complex with both LXR isoforms
same,SRE activation response/phenotype in HepG2,[6],little or no activation of SRE at submicromolar concentrations
same,Efficacy of SRE activation at concentrations ≤1 µM,[6]; concentrations ≤1 µM,20–25 % of T0
same,activity at 1 µM,[7]; [16],107%
same,Effect on NCOR2 binding to LXRβ,[7],weakly destabilized the NCOR2 complex with both LXR isoforms
same,"Corepressor (NCOR2, SMRT2) displacement or stabilization, across LXR isoforms",[8],strongly stabilized the corepressor-bound conformation
O=C(O)Cc1cccc(OCCCN(Cc2cccc(C(F)(F)F)c2Cl)CC(c2ccccc2)c2ccccc2)c1 [GW3965],"Plasma TG, LDL-C and VLDL-C",[9],dose-dependent increase
same,Liver weight and TGs,"[10]; 3 days treatment, GW3965 even at 100 mg/kg/day",no effect on these liver markers
same,SREBP1c and FAS expression in the liver,[10]; 3 days treatment,minimal increases in SREBP1c and FAS expression in the liver
same,ABCA1 expression in peripheral macrophages,[10],sevenfold
same,ABCA1 expression in the small intestine,[10],eightfold
same,Left-shift in the NCOR2 displacement curve in presence of SRC1,[11],100 fold
same,activity at 1 µM,[3],92.5%
same,activity at 1 µM,[4],92.4%
same,activity at 1 µM,[5],99.1%
same,Effect on NCOR2 binding to LXRα,[5],displacement of NCOR2 from both LXR isoforms
same,"SRC1β, relative % activity at 1 μM",[12],95.64%
same,Effect on NCOR2 binding to LXRβ,[7],displacement of NCOR2 from both LXR isoforms
same,activity at 1 µM,[7],92.3%
same,PXR agonism/binding in CRT,[13],no binding to PXR
same,"Plasma LDL, HDL and TG",[14],"increased LDL and HDL at 7 days treatment only, with no effect on TG"
same,Recruitment of NCOR1 to LXRα,[15],Weak recruitment of NCOR1 to LXRα
